The text below walks through data of patent US7169414B2, “Antimicrobial agents isolated from aloe vera” (priority 1998, dated 2007).

This test concerns bacterial growth. Nature of the test: culture killing assays of known Aloe components. It counts as cell-based. Particulars: purified extracts of known Aloe components. The method, then:
Previously isolated and identified individual aloe products as antimicrobial products were studied to confirm that these compounds were not responsible for the anti-bacterial activity identified herein. Purified extracts of several known Aloe components were provided by Dr. I. Danhoff, including: Albarin, Awbarin, Anthraquinone, Aloin A, Aloin A & B, Aloe emodin, and Yellow sap components were tested in like assays.

As to `O=C1c2ccccc2C(=O)c2ccccc21` [Anthraquinone], the “inhibition of bacterial growth” value is “only Aloin A and Aloe emodin showed any inhibition of bacterial growth”.
To `O=C1c2c(O)cccc2C([C@@H]2O[C@H](CO)[C@@H](O)[C@H](O)[C@H]2O)c2cc(CO)cc(O)c21` (some centres unmarked) [Aloin A] belongs “showed any inhibition of bacterial growth”.
